Earlier results on one molecule are cited in US8048850B2, “Covalent conjugates between artemisinin-related endoperoxides and iron-carrying proteins and methods of use” (University of Washington, priority 2002, dated 2011).

For this data set the following is noted: cancer patient; oral dose of 50 mg per day; intramuscular dose of 60 mg/day; period of 9 months.

With `C[C@H]1[C@H](OC(=O)CCC(=O)O)O[C@@H]2O[C@@]3(C)CC[C@H]4[C@H](C)CC[C@@H]1[C@@]24OO3` [artesunate], the adverse side effects entry is “No apparent adverse side effects”.
